# Results: PMC6248945, “Antibacterial properties of the pituitary adenylate cyclase-activating polypeptide: A new human antimicrobial peptide” (PLoS ONE, 2018)
# Where a SMILES comes first, the peptide text is derived from it. [ ]: non-standard residue; d: D form. Tic = O=C(O)[C@@H]1Cc2ccccc2CN1
# Tests used:
# [1] = test system: Bacillus circulans (LSPQ3543); details: 20 h
# [2] = test system: Escherichia coli (O157 :H7); details: CLSI microdilution, MHB, 37 °C, 20h, OD read-out; at least triplicate
# Bacillus subtilis (PY79) = details: PY79, 20 h
# Escherichia coli (JM109) = assay: MIC, CLSI microdilution; type: cell-based; details: MHB, 37 °C, 20h, OD read-out, at least triplicate
# Experimental: Assays were performed according to the CLSI microdilution method. Briefly, the bacterial strains were inoculated and allowed to reach an OD600 of 0.08–0.13 prior to dilution to 10^6 CFU/mL in Mueller-Hinton broth (MHB). A bacterial suspension (50 μL) was then added to each well of a 96-well microplate containing serially diluted peptide solutions (50 μL in MHB) and incubated at 37 °C for 20h. A well containing sterilized medium was used as a sterility control and another well containing no added peptide served as a growth control.
# [3] = test system: Bacillus amyloliquefaciens (LMG22478); details: LMG22478, 20 h
# [4] = test system: Burkholderia cenocepacia (LMG19240); details: CLSI microdilution, MHB, 37 °C, 20h, OD read-out; at least triplicate
# [5] = test system: Burkholderia cenocepacia (J2315); details: 20 h
# [6] = test system: Actinobacillus pleuropneumoniae (4074); details: 20 h
# [7] = test system: Staphylococcus aureus (ATCC6538#P); details: ATCC6538, 20 h
# [8] = test system: Pseudomonas aeruginosa (PA14); details: PA14, 20 h
# [9] = test system: Pseudomonas fluorescens (MF37); details: 20 h
# [10] = test system: Pseudomonas aeruginosa (ATCC33350-Sero-2); details: ATCC33350, 20 h
# [11] = test system: Staphylococcus aureus (Newman); details: 20 h
# Bacillus subtilis (2597) = details: 2597, 20 h
# [12] = test system: Escherichia coli ATCC25922; details: ATCC25922, 20 h
# Bacillus velezensis = details: 20 h
# [13] = test system: Pseudomonas putida (KT2440); details: 20 h
# [14] = test system: Burkholderia thailendensis (ATCC700388); details: CLSI microdilution, MHB, 37 °C, 20h, OD read-out; at least triplicate
# [15] = test system: Burkholderia cenocepacia (K56-2); details: 20 h
# [16] = test system: Serratia marcescens (ATCC14756); details: ATCC14756, 20 h
# [17] = test system: Burkholderia cenocepacia (CEP0511 Gvar3b); details: CLSI microdilution, MHB, 37 °C, 20h, OD read-out; at least triplicate
# [18] = test system: Bacillus cereus (ATCC11778); details: ATCC11778, 20 h
# [19] = test system: Burkholderia cenocepacia (LMG18829); details: LMG18829, 20 h
# DPP-IV = test system: DPP-IV; set-up: method as in PMID 18353507; details: cited from earlier work
# [20] = relative to PACAP38; cited from earlier work
SMILES,"MIC, Bacillus circulans (LSPQ3543) [1]","MIC, Escherichia coli (O157 :H7) [2]","MIC, Bacillus subtilis (PY79) (Bacillus subtilis (PY79))","MIC, Escherichia coli (JM109) (Escherichia coli (JM109))","MIC, Bacillus amyloliquefaciens [3]","MIC, Burkholderia cenocepacia (LMG19240) [4]","MIC, Burkholderia cenocepacia (J2315) [5]","MIC, Actinobacillus pleuropneumoniae [6]","MIC, Staphylococcus aureus (ATCC6538#P) [7]","MIC, Pseudomonas aeruginosa (PA14) [8]","MIC, Pseudomonas fluorescens (MF37) [9]","MIC, Pseudomonas aeruginosa (ATCC33350-Sero-2) [10]","MIC, Staphylococcus aureus (Newman) [11]","MIC, Bacillus subtilis (2597) (Bacillus subtilis (2597))","MIC, Escherichia coli ATCC25922 [12]","MIC, Bacillus velezensis (Bacillus velezensis)","MIC, Pseudomonas putida (KT2440) [13]","MIC, Burkholderia thailendensis (ATCC700388) [14]","MIC, Burkholderia cenocepacia (K56-2) [15]","MIC, Serratia marcescens (ATCC14756) [16]",further results
"CC[C@H](C)[C@H](NC(=O)CNC(=O)[C@H](CC(=O)O)NC(=O)[C@H](CO)NC(=O)[C@@H](N)Cc1c[nH]cn1)C(=O)N1Cc2ccccc2C[C@H]1C(=O)N[C@H](C(=O)N[C@@H](CC(=O)O)C(=O)N[C@@H](CO)C(=O)N[C@@H](Cc1ccc(O)cc1)C(=O)N[C@@H](CO)C(=O)N[C@@H](CCCNC(=N)N)C(=O)N[C@@H](Cc1ccc(O)cc1)C(=O)N[C@@H](CCCNC(=N)N)C(=O)N[C@@H](CCCCN)C(=O)N[C@@H](CCC(N)=O)C(=O)N[C@@H](CCSC)C(=O)N[C@@H](C)C(=O)N[C@H](C(=O)N[C@@H](CCCCN)C(=O)N[C@@H](CCCCN)C(=O)N[C@@H](Cc1ccc(O)cc1)C(=O)N[C@@H](CC(C)C)C(=O)N[C@@H](C)C(=O)N[C@@H](C)C(=O)N[C@H](C(=O)N[C@@H](CC(C)C)C(=O)NCC(=O)N[C@@H](CCCCN)C(=O)N[C@@H](CCCNC(=N)N)C(=O)N[C@@H](Cc1ccc(O)cc1)C(=O)N[C@@H](CCCCN)C(=O)N[C@@H](CCC(N)=O)C(=O)N[C@@H](CCCNC(=N)N)C(=O)N[C@H](C(=O)N[C@@H](CCCCN)C(=O)N[C@@H](CC(N)=O)C(=O)N[C@@H](CCCCN)C(N)=O)C(C)C)C(C)C)C(C)C)[C@@H](C)O [compound 7, [Tic^6]PACAP38] (H-HSDGI[Tic]TDSYSRYRKQMAVKKYLAAVLGKRYKQRVKNK-NH2)",6 µg/mL,>200 µg/mL,7 µg/mL,>200 µg/mL,21 µg/mL,>200 µg/mL,2 µg/mL,>200 µg/mL,>200 µg/mL,>200 µg/mL,>200 µg/mL,>200 µg/mL,>200 µg/mL,>200 µg/mL,>200 µg/mL,71 µg/mL,33 µg/mL,>200 µg/mL,>200 µg/mL,>200 µg/mL,"MIC, Burkholderia cenocepacia (CEP0511 Gvar3b) [17]: >200 µg/mL; MIC, Bacillus cereus (ATCC11778) [18]: >200 µg/mL; MIC, Burkholderia cenocepacia (LMG18829) [19]: >200 µg/mL"
"CC[C@H](C)[C@H](NC(=O)CNC(=O)[C@H](CC(=O)O)NC(=O)[C@H](CO)NC(=O)[C@@H](N)Cc1c[nH]cn1)C(=O)N[C@@H](Cc1ccccc1)C(=O)N[C@H](C(=O)N[C@@H](CC(=O)O)C(=O)N[C@@H](CO)C(=O)N[C@@H](Cc1ccc(O)cc1)C(=O)N[C@@H](CO)C(=O)N[C@@H](CCCNC(=N)N)C(=O)N[C@@H](Cc1ccc(O)cc1)C(=O)N[C@@H](CCCNC(=N)N)C(=O)N[C@@H](C)C(=O)N[C@@H](CCC(N)=O)C(=O)N[C@@H](CCSC)C(=O)N[C@@H](C)C(=O)N[C@H](C(=O)N[C@@H](CCCCN)C(=O)N[C@@H](CCCCN)C(=O)N[C@@H](Cc1ccc(O)cc1)C(=O)N[C@@H](CC(C)C)C(=O)N[C@@H](C)C(=O)N[C@@H](C)C(=O)N[C@H](C(=O)N[C@@H](CC(C)C)C(=O)NCC(=O)N[C@@H](CCCCN)C(=O)N[C@@H](CCCNC(=N)N)C(=O)N[C@@H](Cc1ccc(O)cc1)C(=O)N[C@@H](CCCCN)C(=O)N[C@@H](CCC(N)=O)C(=O)N[C@@H](CCCNC(=N)N)C(=O)N[C@H](C(=O)N[C@@H](CCCCN)C(=O)N[C@@H](CC(N)=O)C(=O)N[C@@H](CCCCN)C(N)=O)C(C)C)C(C)C)C(C)C)[C@@H](C)O [compound 3, [Ala^15]PACAP38] (H-HSDGIFTDSYSRYRAQMAVKKYLAAVLGKRYKQRVKNK-NH2)",21 µg/mL,>200 µg/mL,5 µg/mL,93 µg/mL,10 µg/mL,>200 µg/mL,9 µg/mL,112 µg/mL,>200 µg/mL,>200 µg/mL,>200 µg/mL,>200 µg/mL,>200 µg/mL,111 µg/mL,>200 µg/mL,33 µg/mL,93 µg/mL,>200 µg/mL,>200 µg/mL,>200 µg/mL,"Metabolic stability against DPP-IV (DPP-IV): improved metabolic stability; Metabolic stability in human plasma [20]: improved metabolic stability; MIC, Burkholderia cenocepacia (CEP0511 Gvar3b) [17]: >200 µg/mL; MIC, Bacillus cereus (ATCC11778) [18]: >200 µg/mL; MIC, Burkholderia cenocepacia (LMG18829) [19]: >200 µg/mL"
"CSCC[C@H](NC(=O)[C@H](CCC(N)=O)NC(=O)[C@H](CCCCN)NC(=O)[C@H](CCCNC(=N)N)NC(=O)[C@H](Cc1ccc(O)cc1)NC(=O)[C@H](CCCNC(=N)N)NC(=O)[C@H](CO)NC(=O)[C@H](Cc1ccc(O)cc1)NC(=O)[C@@H](N)CO)C(=O)N[C@@H](C)C(=O)N[C@H](C(=O)N[C@@H](CCCCN)C(=O)N[C@@H](CCCCN)C(=O)N[C@@H](Cc1ccc(O)cc1)C(=O)N[C@@H](CC(C)C)C(=O)N[C@@H](C)C(=O)N[C@@H](C)C(=O)N[C@H](C(=O)N[C@@H](CC(C)C)C(=O)NCC(=O)N[C@@H](CCCCN)C(=O)N[C@@H](CCCNC(=N)N)C(=O)N[C@@H](Cc1ccc(O)cc1)C(=O)N[C@@H](CCCCN)C(=O)N[C@@H](CCC(N)=O)C(=O)N[C@@H](CCCNC(=N)N)C(=O)N[C@H](C(=O)N[C@@H](CCCCN)C(=O)N[C@@H](CC(N)=O)C(=O)N[C@@H](CCCCN)C(N)=O)C(C)C)C(C)C)C(C)C [compound 10, PACAP(9–38)] (H-SYSRYRKQMAVKKYLAAVLGKRYKQRVKNK-NH2)",,,>183 µg/mL,>183 µg/mL,>183 µg/mL,,19 µg/mL,>183 µg/mL,,,,,,>183 µg/mL,,,>183 µg/mL,,>183 µg/mL,,
